Experimental data from patent US10065967B2, “Compounds that are ERK inhibitors” (Merck Sharp & Dohme Corp., priority 2013, dated 2018).
Counter-ions that a name gives are not always drawn.

target: Active Human ERK2 (hERK2) (Homo sapiens (Human), UniProt P28482); experiment: Active Human ERK2 (hERK2) Activity Assay (IMAP-FP); format: biochemical; conditions: phosphorylated active hERK2 0.5 nM, 30 μM ATP, 10 point titration, read-out: ERK 2 Human average IC50
Procedure: Assays Active Human ERK2 (hERK2) Activity Assay:
Activated ERK2 activity was determined in an IMAP-FP assay (Molecular Devices). Using this assay format, the potency (IC50) of each compound was determined from a 10 point (1:3 serial dilution, 3 μM starting compound concentration) titration curve using the following outlined procedure. […] Following a 15 minute compound & enzyme incubation, each reaction was initiated by the addition of 10 μL kinase buffer containing 2.45 μM ERK2 IMAP substrate peptides (2.25 μM-unlabeled peptide and 200 nM-labeled peptide, and 75 μM ATP. The final reaction in each well of 25 μL consists of 0.5 nM hERK2, 900 nM unlabeled peptide, 80 nM labeled-peptide, and 30 μM ATP. Phosphorylation reactions were allowed to proceed for 60 minutes and were immediately quenched by the addition of 60 μL IMAP detection beads (1:1000 dilutions) in IMAP binding buffer (Molecular Devices) with 24 mM NaCl. Plates were read on EnVision reader after 60 minutes binding equilibration using Fluorescence Polarization protocol (Perkin Elmer).

Active Human ERK2 (hERK2), sequence (P28482 whole entry): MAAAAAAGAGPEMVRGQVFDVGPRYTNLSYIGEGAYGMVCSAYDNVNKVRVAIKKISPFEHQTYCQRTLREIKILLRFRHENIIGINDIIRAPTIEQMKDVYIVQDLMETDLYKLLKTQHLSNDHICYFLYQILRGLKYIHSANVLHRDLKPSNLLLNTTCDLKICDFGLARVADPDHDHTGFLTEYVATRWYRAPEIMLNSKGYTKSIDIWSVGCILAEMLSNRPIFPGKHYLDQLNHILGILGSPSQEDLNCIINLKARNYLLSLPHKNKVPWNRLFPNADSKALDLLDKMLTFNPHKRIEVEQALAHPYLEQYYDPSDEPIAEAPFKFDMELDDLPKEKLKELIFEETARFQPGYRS

**Q.** For `Cn1cc(-c2n[nH]c3cc4[nH]c(=O)ccc4cc23)cn1` [Example 4, 3-(1-methyl-1H-pyrazol-4-yl)-1,8-dihydro-7H-pyrazolo[4,3-g]quinolin-7-one], which IC50 is on record?
**A.** Its IC50 is 0.3 nM.

**Q.** How did the IC50 turn out when `O=c1ccc2cc3cn[nH]c3cc2[nH]1` [Example 5, 1,8-dihydro-7H-pyrazolo[4,3-g]quinolin-7-one] was run?
**A.** The IC50 was 228 nM.

**Q.** For `Cn1cc(-c2n[nH]c3cc4[nH]c(=O)c(Br)cc4cc23)cn1` [Example 6, 6-bromo-3-(1-methyl-1H-pyrazol-4-yl)-1,8-dihydro-7H-pyrazolo[4,3-g]quinolin-7-one trifluoroacetate], which IC50 is on record?
**A.** Its IC50 is 0.3 nM.

**Q.** `Cn1cc(-c2n[nH]c3cc4[nH]c(=O)c(Cc5ccccc5)cc4cc23)cn1` [Example 7, 6-benzyl-3-(1-methyl-1H-pyrazol-4-yl)-1,8-dihydro-7H-pyrazolo[4,3-g]quinolin-7-one] was tested. Which IC50 did it give?
**A.** Its IC50 is 0.3 nM.

**Q.** How did the IC50 turn out when `Cc1cc(-c2n[nH]c3cc4c(cc23)CCCC(=O)N4)ccn1` [Example 9, 3-(2-methylpyridin-4-yl)-5,6,7,9-tetrahydroazepino[3,2-f]indazol-8(1H)-one] was run?
**A.** The IC50 was 252 nM.

**Q.** For `Cc1cc(-c2n[nH]c3cc4c(cc23)CN([C@H](C)c2ccc(F)cc2)C(=O)N4)ccn1` [Example 10, (R)-6-(1-(4-fluorophenyl)ethyl)-3-(2-methylpyridin-4-yl)-5,6-dihydro-1H-pyrazolo[4,3-g]quinazolin-7(8H)-one], which IC50 is on record?
**A.** The IC50 was 0.3 nM.

**Q.** With `Cc1cc(-c2n[nH]c3cc4c(cc23)CCN(Cc2ccc(F)cc2)C(=O)N4O)ccn1` [Example 11, 7-(4-fluorobenzyl)-9-hydroxy-3-(2-methylpyridin-4-yl)-5,6,7,9-tetrahydro-[1,3]diazepino[5,4-f]indazol-8(1H)-one] as the compound, how does the IC50 read?
**A.** The IC50 was 459 nM.

**Q.** How did the IC50 turn out when `Cc1cc(-c2n[nH]c3cc4c(cc23)CCN([C@H](C)c2ccc(F)cc2)C(=O)N4)ccn1` [Example 12, (R)-7-(1-(4-fluorophenyl)ethyl)-3-(2-methylpyridin-4-yl)-5,6,7,9-tetrahydro-[1,3]diazepino[5,4-f]indazol-8(1H)-one] was run?
**A.** Its IC50 is 72 nM.

**Q.** `Cc1cc(-c2n[nH]c3cc4c(cc23)CNC(=O)N4)ccn1` [Example 13, 3-(2-methylpyridin-4-yl)-5,6-dihydro-1H-pyrazolo[4,3-g]quinazolin-7(8H)-one] was tested. Which IC50 did it give?
**A.** Its IC50 is 0.6 nM.

**Q.** Which IC50 does the source give for `Cc1cc(-c2n[nH]c3cc4c(cc23)CN(Cc2ccccc2)C(=O)N4)ccn1` [Example 14, 6-benzyl-3-(2-methylpyridin-4-yl)-5,6-dihydro-1H-pyrazolo[4,3-g]quinazolin-7(8H)-one] here?
**A.** The IC50 was 0.5 nM.

**Q.** For `C[C@H](c1ccccc1)n1c(=O)[nH]c2cc3[nH]nc(-c4ccc5nnn(C)c5c4)c3cc2c1=O` [Example 15, (R)-3-(1-methyl-1H-benzo[d][1,2,3]triazol-6-yl)-6-(1-phenylethyl)-1H-pyrazolo[4,3-g]quinazoline-5,7(6H,8H)-dione], which IC50 is on record?
**A.** The IC50 was 1.7 nM.

**Q.** How did the IC50 turn out when `Cc1cc(-c2n[nH]c3cc4c(cc23)CN(C2CCCOc3ccccc32)C(=O)N4)ccn1` (stereo not shown) [Example 16, 3-(2-methylpyridin-4-yl)-6-(2,3,4,5-tetrahydrobenzo[b]oxepin-5-yl)-5,6-dihydro-1H-pyrazolo[4,3-g]quinazolin-7(8H)-one] was run?
**A.** The IC50 was 4.8 nM.

**Q.** Which IC50 does the source give for `COC[C@H](c1ccc(F)cc1)N1Cc2cc3c(-c4ccnc(C)c4)n[nH]c3cc2NC1=O` [Example 17] here?
**A.** Its IC50 is 0.7 nM.

**Q.** `COc1ccccc1CN1Cc2cc3c(-c4ccnc(C)c4)n[nH]c3cc2NC1=O` [Example 18, 6-(2-methoxybenzyl)-3-(2-methylpyridin-4-yl)-5,6-dihydro-1H-pyrazolo[4,3-g]quinazolin-7(8H)-one] was tested. Which IC50 did it give?
**A.** Its IC50 is 0.8 nM.

**Q.** With `COc1ccccc1CCN1Cc2cc3c(-c4ccnc(C)c4)n[nH]c3cc2NC1=O` [Example 19, 6-(2-methoxyphenethyl)-3-(2-methylpyridin-4-yl)-5,6-dihydro-1H-pyrazolo[4,3-g]quinazolin-7(8H)-one] as the compound, how does the IC50 read?
**A.** The IC50 was 2.3 nM.

**Q.** For `Cc1cc(-c2n[nH]c3cc4c(cc23)CN([C@H](C)c2ccccc2)C(=O)N4)ccn1` [Example 20, (R)-3-(2-methylpyridin-4-yl)-6-(1-phenylethyl)-5,6-dihydro-1H-pyrazolo[4,3-g]quinazolin-7(8H)-one 2,2,2-trifluoroacetate], which IC50 is on record?
**A.** The IC50 was 0.3 nM.
